Several values for one entry are separate records, joined by “and”; a condition that tells them apart may be missing. Equal entries are not always repeated.
Columns and labels:
[1] = Plasma protein binding by rapid equilibrium dialysis in study C21010; format: in vitro ADME; details: human, oral, 200 mg, mean percent unbound of orteronel in plasma, range across the renal function groups
[2] = ref unpublished data, Suri, A., Pusalkar, S., Li, Y., & Prakash, S. Clin. Pharmacol. Drug Development 2015, cited from earlier work
[3] = In vitro clearance in human liver microsomes; format: in vitro ADME
[4] = In vitro clearance in human hepatocytes; format: in vitro ADME
[5] = Phase 1 renal impairment study C21010, urine PK; format: in vivo, human; details: geometric mean; for CL renal: human, urine, oral, 200 mg, CLrenal
[6] = Phase 1 single-dose renal impairment study C21010, plasma PK; format: in vivo, human; details: for AUC(0-inf): human, plasma, po, 200 mg, AUCinf, geometric LSM, single oral 200 mg dose; for increase in mean AUCinf compared with normal renal function: single 200 mg dose
[7] = Population PK model of plasma orteronel in patients with mCRPC; format: in vivo, human

## CNC(=O)c1ccc2cc([C@@]3(O)CCn4cncc43)ccc2c1 [orteronel]
[1]
  fraction unbound at 2 h: 0.547 to 0.589
[2]; intact parent compound in urine
  share of orteronel CL characterized as renal CL: 53%
[2]; metabolites formed via hydrolysis, neither renal nor hepatic
  share of CL characterized as other CL: 19%
[3]
  in vitro clearance: no appreciable in vitro clearance
[4]
  in vitro clearance: no appreciable in vitro clearance
[5]; mild chronic RI
  CL renal: 97.8 mL/min
  fraction of dose excreted as unchanged orteronel (Fe): 33.1%
[5]; moderate chronic RI
  CL renal: 49.2 mL/min
  fraction of dose excreted as unchanged orteronel (Fe): 19.4%
[5]; normal renal function
  CL renal: 158 mL/min
  fraction of dose excreted as unchanged orteronel (Fe): 44.9%
[5]; severe chronic RI
  CL renal: 25.8 mL/min
  fraction of dose excreted as unchanged orteronel (Fe): 13.8%
[6]; CL/F = 10.90 + 0.101*CLcr, r2 = 0.2177
  slope of regression of CL/F vs CLcr: 0.101
[6]; mild chronic renal impairment (CLcr ≥60–89 mL/min)
  AUC(0-inf): 11300 ng·h/mL
[6]; moderate chronic renal impairment (CLcr ≥30–59 mL/min)
  AUC(0-inf): 13100 ng·h/mL
[6]; normal renal function (CLcr ≥90 mL/min), fasted
  AUC(0-inf): 9500 ng·h/mL
[6]; severe chronic renal impairment (CLcr ≥15–29 mL/min)
  AUC(0-inf): 17800 ng·h/mL
[6]; mild chronic RI
  increase in mean AUCinf compared with normal renal function: 18.6% and 19%
[6]; moderate chronic RI
  increase in mean AUCinf compared with normal renal function: 38% and 38.4%
[6]; severe chronic RI
  increase in mean AUCinf compared with normal renal function: 87% and 87.1%
[7]; base model, mean (SD)
  ka: 2.1 (0.2) h^−1
[7]; final PK model, reduction in CLcr from 92 to 46 mL/min
  predicted decrease in CL/F: 28%
[7]; final model covariate effect, mean (SD)
  BILI on ka: –0.46 (0.20)
[7]; final model, mean (SD)
  CL/F: 17.7 L/h
  V/F: 261 L
  ka: 2.2 (0.3) h^−1

Reference: PMC5039936 (Clinical Pharmacology and Therapeutics, 2015)
